Measurements as given in patent publication US9174952B2, “Substituted 3-thiazoloamino-propionic acid derivatives and their use as pharmaceuticals” (SANOFI, priority 2011, dated 2015).

Biological target: T1, Recombinant human cathepsin A (Homo sapiens, UniProt P10619)
T1 construct: Recombinant human cathepsin A (residues 29-480, with a C-terminal 10-His tag); 10-His (C); purchased R&D Systems 1049-SE
T1 sequence (P10619 29-326 limits assumed): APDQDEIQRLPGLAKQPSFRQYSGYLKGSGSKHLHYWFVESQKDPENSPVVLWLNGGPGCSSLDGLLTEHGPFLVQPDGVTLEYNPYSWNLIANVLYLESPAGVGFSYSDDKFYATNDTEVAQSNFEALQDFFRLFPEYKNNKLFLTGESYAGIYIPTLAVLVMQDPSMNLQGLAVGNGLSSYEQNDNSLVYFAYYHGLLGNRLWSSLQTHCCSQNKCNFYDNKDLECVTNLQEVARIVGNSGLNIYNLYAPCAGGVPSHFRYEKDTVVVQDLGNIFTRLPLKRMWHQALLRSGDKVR
T1 sequence (P10619 327-480 limits assumed): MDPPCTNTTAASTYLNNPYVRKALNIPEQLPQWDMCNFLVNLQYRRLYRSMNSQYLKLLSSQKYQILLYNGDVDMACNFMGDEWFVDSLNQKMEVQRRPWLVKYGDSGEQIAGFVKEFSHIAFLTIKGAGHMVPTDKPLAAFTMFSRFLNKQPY
Test: Cathepsin A inhibitory activity
Type: biochemical
Details: activated recombinant human cathepsin A 833 ng/ml, Bodipy FL-labeled bradykinin substrate 2 μM, pH 5.5, room temperature
Description: a) Cathepsin A Inhibitory Activity
Recombinant human cathepsin A (residues 29-480, with a C-terminal 10-His tag; R&D Systems, #1049-SE) was proteolytically activated with recombinant human cathepsin L (R&D Systems, #952-CY). Briefly, cathepsin A was incubated at 10 μg/ml with cathepsin L at 1 μg/ml in activation buffer (25 mM 2-(morpholin-4-yl)-ethanesulfonic acid (MES), pH 6.0, containing 5 mM dithiothreitol (DTT)) for 15 min at 37° C. Cathepsin L activity was then stopped by the addition of the cysteine protease inhibitor E-64 (N-(trans-epoxysuccinyl)-L-leucine-4-guanidinobutylamide; Sigma-Aldrich, # E3132; dissolved in activation buffer/DMSO) to a final concentration of 10 μM.
The activated cathepsin A was diluted in assay buffer (25 mM MES, pH 5.5, containing 5 mM DTT) and mixed with the test compound (dissolved in assay buffer containing (v/v) 3% DMSO) or, in the control experiments, with the vehicle in a multiple assay plate. After incubation for 15 min at room temperature, as substrate then bradykinin carrying an N-terminal ®Bodipy FL (4,4-difluoro-5,7-dimethyl-4-bora-3a,4a-diaza-s-indacene-3-propionyl) label (JPT Peptide Technologies GmbH; dissolved in assay buffer) was added to the mixture. The final concentration of cathepsin A was 833 ng/ml and the final concentration of labeled bradykinin 2 μM. After incubation for 15 min at room temperature the reaction was stopped by the addition of stop buffer (130 mM 2-(4-(2-hydroxy-ethyl)-piperazin-1-yl)-ethanesulfonic acid, pH 7.4, containing (v/v) 0.013% ®Triton X-100, 0.13% Coating Reagent 3 (Caliper Life Sciences), 6.5% DMSO and 20 μM ebelactone B (Sigma, # E0886)).
Uncleaved substrate and product were then separated by a microfluidic capillary electrophoresis on a LabChip® 3000 Drug Discovery System (12-Sipper-Chip; Caliper Life Sciences) and quantified by determination of the respective peak areas. Substrate turnover was calculated by dividing product peak area by the sum of substrate and product peak areas, and the enzyme activity and the inhibitory effect of the test compound thus quantified. From the percentage of inhibition of cathepsin A activity observed with the test compound at several concentrations, the inhibitory concentration IC50, i.e. the concentration which effects 50% inhibition of enzyme activity was, calculated.

SMILES	IC50 [µM]
O=C(O)C[C@@H](Cc1ccccc1)NC(=O)c1nc(-c2ccccc2)cs1 [Example 1, (R)-4-Phenyl-3-[(4-phenyl-thiazole-2-carbonyl)-amino]-butyric acid]	1.71
O=C(O)CC(NC(=O)c1csc(-c2ccccc2)n1)c1ccc(-c2ccc(F)cc2)cc1 (stereo not drawn) [Example 2, 3-(4′-Fluoro-biphenyl-4-yl)-3-[(2-phenyl-thiazole-4-carbonyl)-amino]-propionic acid]	> 10
Cc1cccc([C@H](CC(=O)O)NC(=O)c2nc(-c3ccccc3)cs2)c1 [Example 3, (S)-3-[(4-Phenyl-thiazole-2-carbonyl)-amino]-3-m-tolyl-propionic acid]	0.315
C[C@@](CC(=O)O)(NC(=O)c1nc(-c2ccccc2)cs1)c1ccccc1 [Example 4, (S)-3-Phenyl-3-[(4-phenyl-thiazole-2-carbonyl)-amino]-butyric acid]	> 10
COc1ccc(-c2nc(C(=O)N[C@@H](CC(=O)O)c3ccccc3C)cs2)cc1 [Example 5, (S)-3-{[2-(4-Methoxy-phenyl)-thiazole-4-carbonyl]-amino}-3-o-tolyl-propionic acid]	0.368
Cc1cc(C)n(-c2nc(C(=O)N[C@@H](CC(=O)O)c3ccccc3C)cs2)n1 [Example 6, (S)-3-{[2-(3,5-Dimethyl-pyrazol-1-yl)-thiazole-4-carbonyl]-amino}-3-o-tolyl-propionic acid]	> 10
Cc1ccccc1[C@H](CC(=O)O)NC(=O)c1csc(-c2ccncc2)n1 [Example 7, (S)-3-[(2-Pyridin-4-yl-thiazole-4-carbonyl)-amino]-3-o-tolyl-propionic acid]	0.805
Cc1ccccc1[C@H](CC(=O)O)NC(=O)c1csc(-c2cnccn2)n1 [Example 8, (S)-3-[(2-Pyrazin-2-yl-thiazole-4-carbonyl)-amino]-3-o-tolyl-propionic acid]	2.63
Cc1cc(C(F)(F)F)n(-c2nc(C(=O)N[C@@H](CC(=O)O)c3ccccc3C)cs2)n1 [Example 9, (S)-3-{[2-(3-Methyl-5-trifluoromethyl-pyrazol-1-yl)-thiazole-4-carbonyl]-amino}-3-o-tolyl-propionic acid]	3.59
Cc1ccc(-c2nc(C(=O)N[C@@H](CC(=O)O)c3ccccc3C)cs2)cc1 [Example 10, (S)-3-o-Tolyl-3-[(2-p-tolyl-thiazole-4-carbonyl)-amino]-propionic acid]	0.187
Cc1ccc([C@H](CC(=O)O)NC(=O)c2nc(-c3ccccc3)cs2)cc1 [Example 11, (S)-3-[(4-Phenyl-thiazole-2-carbonyl)-amino]-3-p-tolyl-propionic acid]	0.404
Cc1ccccc1-c1nc(C(=O)N[C@@H](CC(=O)O)c2cccc(Cl)c2Cl)cs1 [Example 12, (S)-3-(2,3-Dichloro-phenyl)-3-[(2-o-tolyl-thiazole-4-carbonyl)-amino]-propionic acid]	0.085
O=C(O)C[C@H](NC(=O)c1csc(-c2ccccc2)n1)c1cccc(Cl)c1Cl [Example 13, (S)-3-(2,3-Dichloro-phenyl)-3-[(2-phenyl-thiazole-4-carbonyl)-amino]-propionic acid]	0.176
O=C(O)C[C@H](NC(=O)c1csc(-c2cccc(Cl)c2Cl)n1)c1cccc(Cl)c1Cl [Example 14, (S)-3-(2,3-Dichloro-phenyl)-3-{[2-(2,3-dichloro-phenyl)-thiazole-4-carbonyl]-amino}-propionic acid]	0.159
O=C(O)C[C@H](NC(=O)c1csc(-c2ccccc2F)n1)c1cccc(Cl)c1Cl [Example 15, (S)-3-(2,3-Dichloro-phenyl)-3-{[2-(2-fluoro-phenyl)-thiazole-4-carbonyl]-amino}-propionic acid]	0.209
O=C(O)C[C@H](NC(=O)c1csc(-c2ccc(C(F)(F)F)cc2)n1)c1cccc(Cl)c1Cl [Example 16, (S)-3-(2,3-Dichloro-phenyl)-3-{[2-(4-trifluoromethyl-phenyl)-thiazole-4-carbonyl]-amino}-propionic acid]	3.02
COc1cccc([C@H](CC(=O)O)NC(=O)c2csc(-c3ccccc3C)n2)c1OC [Example 17, (S)-3-(2,3-Dimethoxy-phenyl)-3-[(2-o-tolyl-thiazole-4-carbonyl)-amino]-propionic acid]	0.242
COc1cccc([C@H](CC(=O)O)NC(=O)c2csc(-c3ccccc3)n2)c1OC [Example 18, (S)-3-(2,3-Dimethoxy-phenyl)-3-[(2-phenyl-thiazole-4-carbonyl)-amino]-propionic acid]	0.498
COc1cccc([C@H](CC(=O)O)NC(=O)c2csc(-c3ccccc3F)n2)c1OC [Example 19, (S)-3-(2,3-Dimethoxy-phenyl)-3-{[2-(2-fluoro-phenyl)-thiazole-4-carbonyl]-amino}-propionic acid]	0.875
COc1cccc([C@H](CC(=O)O)NC(=O)c2csc(-c3ccc(C(F)(F)F)cc3)n2)c1OC [Example 20, (S)-3-(2,3-Dimethoxy-phenyl)-3-{[2-(4-trifluoromethyl-phenyl)-thiazole-4-carbonyl]-amino}-propionic acid]	6.34
Cc1ccccc1-c1nc(C(=O)N[C@@H](CC(=O)O)c2ccc(Cl)cc2Cl)cs1 [Example 21, (S)-3-(2,4-Dichloro-phenyl)-3-[(2-o-tolyl-thiazole-4-carbonyl)-amino]-propionic acid]	0.886
O=C(O)C[C@H](NC(=O)c1csc(-c2ccccc2)n1)c1ccc(Cl)cc1Cl [Example 22, (S)-3-(2,4-Dichloro-phenyl)-3-[(2-phenyl-thiazole-4-carbonyl)-amino]-propionic acid]	0.544
O=C(O)C[C@H](NC(=O)c1csc(-c2cccc(Cl)c2Cl)n1)c1ccc(Cl)cc1Cl [Example 23, (S)-3-(2,4-Dichloro-phenyl)-3-{[2-(2,3-dichloro-phenyl)-thiazole-4-carbonyl]-amino}-propionic acid]	0.555
O=C(O)C[C@H](NC(=O)c1csc(-c2ccccc2F)n1)c1ccc(Cl)cc1Cl [Example 24, (S)-3-(2,4-Dichloro-phenyl)-3-{[2-(2-fluoro-phenyl)-thiazole-4-carbonyl]-amino}-propionic acid]	1.07
O=C(O)C[C@H](NC(=O)c1csc(-c2ccc(C(F)(F)F)cc2)n1)c1ccc(Cl)cc1Cl [Example 25, (S)-3-(2,4-Dichloro-phenyl)-3-{[2-(4-trifluoromethyl-phenyl)-thiazole-4-carbonyl]-amino}-propionic acid]	6.37
Cc1ccccc1-c1nc(C(=O)N[C@@H](CC(=O)O)c2ccccc2Cl)cs1 [Example 26, (S)-3-(2-Chloro-phenyl)-3-[(2-o-tolyl-thiazole-4-carbonyl)-amino]-propionic acid]	0.149
O=C(O)C[C@H](NC(=O)c1csc(-c2ccccc2)n1)c1ccccc1Cl [Example 27, (S)-3-(2-Chloro-phenyl)-3-[(2-phenyl-thiazole-4-carbonyl)-amino]-propionic acid]	0.217
O=C(O)C[C@H](NC(=O)c1csc(-c2cccc(Cl)c2Cl)n1)c1ccccc1Cl [Example 28, (S)-3-(2-Chloro-phenyl)-3-{[2-(2,3-dichloro-phenyl)-thiazole-4-carbonyl]-amino}-propionic acid]	0.282
O=C(O)C[C@H](NC(=O)c1csc(-c2ccccc2Cl)n1)c1ccccc1Cl [Example 29, (S)-3-(2-Chloro-phenyl)-3-{[2-(2-chloro-phenyl)-thiazole-4-carbonyl]-amino}-propionic acid]	0.1
O=C(O)C[C@H](NC(=O)c1csc(-c2ccccc2F)n1)c1ccccc1Cl [Example 30, (S)-3-(2-Chloro-phenyl)-3-{[2-(2-fluoro-phenyl)-thiazole-4-carbonyl]-amino}-propionic acid]	0.377
